Measurements: US20090176817A1, “Method of Treatment of Diarrhea-Predominant Irritable Bowel Syndrome in a Subject” (priority 2005, published 2009)
Like-named read-outs stand apart in the source and are kept apart here.

Tests used:
in vitro = in vitro ADME; conditions: human, plasma
Protocol: Protein binding was also evaluated in an in vitro study in human, mouse, rat, and dog plasma using equilibrium dialysis (12-14K molecular weight cut-off membrane). This study measured the binding of (^14C)-cilansetron in plasma at nominal concentrations (30, 90, and 300 ng/mL) which are much higher than those encountered in vivo in humans. This study also measured the binding of (^14C)-cilansetron to purified human serum albumin at cilansetron concentrations ranging from 30-3000 ng/mL and to purified human alpha-1 acid glycoprotein (AAG) at concentrations ranging from 30-10000 ng/mL.

[1] = test system: patients with malignant tumors; assay: Study S.241.2.101: cisplatin-induced nausea and vomiting; format: in vivo, human; conditions: IV 8 mg TID
Protocol: The effect of cilansetron on nausea and vomiting has been studied in 2 clinical studies in cancer patients. Both studies were randomized, singleblind, positive-controlled, parallel-group, pilot studies in male and female patients with malignant tumors, to investigate the effect of cilansetron on cytostatic-induced nausea and vomiting. In both studies, patients were on their first cycle of chemotherapy and were being treated with cisplatin (275 mg/m2 as a single dose in Study S.24 1.2.10 1 and […] for 5 days in Study K.24 1 S O 17). Patients in Study S.24 1.2.10 1 were aged 40-74 years (ITT population=16) and patients in Study K.24 1 S O 17 were aged 39-74 years (ITT population=19). In both studies, patients were randomized to receive either […] or IV ondansetron 8 mg TID for 1 day (Study S.241.2.101) or 5 days (Study K.2415017), corresponding to the day(s) of their cisplatin administration. If nausea and vomiting were completely controlled on a treatment day, the second and/or third doses of cilansetron or ondansetron could be omitted on that day. The primary efficacy parameter in both studies was the combination of the occurrence of vomiting and the severity of nausea, with a responder being defined as a patient with no vomiting and not more than mild nausea during the treatment day(s). […]

[2] = test system: non-constipated IBS subjects; assay: Study S241.2.112: Phase II dose-ranging efficacy; format: in vivo, human
Protocol: Study S241.2.112 was a Phase II, double-blind, placebo-controlled, randomized, multicenter parallel-group, dose-ranging study to investigate the efficacy and safety of cilansetron in non-constipated subjects with irritable bowel syndrome. The study was conducted in 51 study centers in the U.S. A total of at least 88 subjects were planned per treatment group evaluable for efficacy, in total 440 to complete the study; 975 subjects were screened; 490 were randomized and 481 analyzed for safety.
Diagnosis and main criteria for inclusion were IBS subjects satisfying the Rome criteria (1992) and minimum abdominal pain/discomfort, stool frequency and consistency determined during the run-in period. Subjects were treated with cilansetron 1 mg, 2 mg, 8 mg, and 16 mg tablets given orally TID or matching placebo tablets given orally TID for 12 weeks.
Efficacy was evaluated by weekly global questions concerning adequate relief of IBS symptoms (abdominal pain/discomfort, abnormal bowel habits). A responder is a subject who responded “Yes” at least 50% of the time after randomization, with a minimum treatment duration of four weeks.

[3] = both, human, in vivo
Protocol: Diurnal variations in cilansetron pharmacokinetics have been evaluated in a randomized, double-blind, placebo-controlled, 2-way crossover study in 9 male and 9 female healthy subjects, aged 21 to 39 years. Subjects were randomized to receive 2 treatments (cilansetron 16 mg tablet and placebo) during the 2 treatment periods. During each treatment period, subjects received a single dose of their assigned treatment on the first day (Day 1), after which they received the same treatment TID for 4 days (Days 2-5). There was a 10-day washout period between treatment periods. Subjects were fasted for at least 2 hours before and following each dose, and heavy physical activity was restricted. Serial blood samples for the measurement of multiple-dose pharmacokinetics of cilansetron were collected up to 24 hours postdose on Day 5.

[4] = both, human, in vivo; remark: listed apart in the source
Protocol: The effect of hepatic impairment on the pharmacokinetics of cilansetron was evaluated in a multiple-dose, parallel group study in 14 healthy and 14 moderately to severely hepatically impaired male and female subjects, aged 41-70 years. Impaired subjects (Child-Pugh score 7 to 11) were matched to healthy subjects by age (±2 years), sex, menstrual status, and smoking history status. All subjects received oral cilansetron 8 mg TID on Days 1 to 5, and a single dose on the morning of Day 6. […] Blood samples were also collected at predose on Day 1, and at predose, 1 hour and 1.5 hours postdose on Day 6, for measurement of cilansetron protein binding in serum.

clinical = conditions: human, in vivo, 16 mg
Protocol: In a single-dose, crossover study conducted to evaluate the potential for a drug-drug interaction between liquid Maalox and cilansetron, 12 male and 12-female subjects (aged 19-39 years) received single doses of cilansetron 16 mg alone and cilansetron 16 mg+Maalox in a crossover fashion under fasted conditions. Blood samples for measurement of plasma cilansetron pharmacokinetics were collected up to 24 hours postdose following each treatment.
The effect of concomitantly administered antacid (liquid Maalox) on the pharmacokinetics of cilansetron has been evaluated in a single-dose, crossover study in 24 healthy, male and female subjects, aged 19 to 39 years. Subjects received the following two treatments during each of the study periods in a crossover fashion: a single oral dose of cilansetron 16 mg tablet (reference treatment); a single oral dose of cilansetron 16 mg tablet+20 mL oral Maalox liquid administered every 4 hours (test treatment; 4 doses of Maalox in total; cilansetron was administered 5 minutes after the first dose of Maalox). Both cilansetron treatments were administered under fasted conditions.

For `Cc1nccn1C[C@H]1CCc2c(c3cccc4c3n2CCC4)C1=O` [Cilansetron, (R)-(−)-4,5,6,8,9,10-hexahydro-10-[(2-methyl-1H-imidazol-1-yl)methyl]-11H-pyrido-[3,2,1-jk]-carbazol-11-one], the fraction unbound (in vitro) was 0.042, the Response rate [1] was 16.7% and the “Responder rate better than placebo” value ([2]; 1 mg TID) was 22%. For the same compound, the “Responder rate better than placebo” value ([2]; 1 mg, females) was 26%, the “Responder rate higher than placebo” value ([2]; 2 mg TID) was 13% and the “Responder rate higher than placebo” value ([2]; 8 mg TID) was 15%. The “Responder rate better than placebo” value ([2]; 16 mg TID) was 22%, the “AUC ratio 0-8 h/8-16 h” value [3] was 106 (99, 115) % and the “AUC ratio 0-8 h/16-24 h” value [3] was 110 (103, 119) %. For the same compound, the “AUC ratio 8-16 h/16-24 h” value [3] was 104 (96, 111) %, the “Cmax ratio 0-8 h/8-16 h” value [3] was 130 (111, 153) % and the “Cmax ratio 0-8 h/16-24 h” value [3] was 133 (113, 157) %. For the same compound, the “Cmax ratio 8-16 h/16-24 h” value [3] was 102 (87, 120) %, the “Mean Cmax higher after morning dose than mid-day and evening doses” value ([3]; 16 mg) was 30-33% and the “Increase in half-life with hepatic impairment” value [4] was 2 fold. The “AUC increase with hepatic impairment” value ([4]; 8 mg) was 88%, the “Cmax increase with hepatic impairment” value ([4]; 8 mg) was 22% and the “AUC(0-τ) Ratio” value ([4]; po, 8 mg) was 1.88. The “AUC(0-τ), Geom. LS Mean” value ([4]; po, 8 mg) was 178 ng·h/mL, the Cmax ([4]; po, 8 mg) was 75.2 (40) ng/mL and the “Cmax Ratio” value ([4]; po, 8 mg) was 1.22. For the same compound, the “Cmax, Geom. LS Mean” value ([4]; po, 8 mg) was 68.7 ng/mL, the T½ ([4]; po, 8 mg) was 4.37 (25) h and the Vz/F ([4]; po, 8 mg) was 303 (45) L. It also gave an AUC(0-inf) (clinical; both) of 264 ng·h/mL, an AUC(0-t) (clinical; both) of 264 ng·h/mL and a Cmax (clinical; both) of 102 ng/mL. It also gave a Vd/F (clinical; both) of 237 L, a half-life (clinical; both) of 2.39 h and an AUC(0-inf) (clinical; female) of 361 ng·h/mL. For the same compound, the AUC(0-t) (clinical; female) was 360 ng·h/mL, the Cmax (clinical; female) was 137 ng/mL and the Vd/F (clinical; female) was 202 L. The half-life (clinical; female) was 2.97 h, the AUC(0-inf) (clinical; male) was 159 ng·h/mL and the AUC(0-t) (clinical; male) was 159 ng·h/mL. It also gave a Cmax (clinical; male) of 63.1 ng/mL, a Vd/F (clinical; male) of 276 L and a half-life (clinical; male) of 1.75 h.
